From US20240150340A1, “CDK Inhibitors And Their Use As Pharmaceuticals” (Prelude Therapeutics Incorporated, priority 2022, published 2024)

Legend:
OVCAR3 p-RB = experiment: pRB ICW Assay in OVCAR3 Cells; type: cell-based; details: Homo sapiens, OVCAR-3, incubated with compound for 2 hours
Procedure, shortened: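 In-Cell Western on OVCAR3: phospho-RB antibody signal with DRAQ5 counterstain read at 700 and 800 nm after fixation. Compounds were applied for 2 h at 37° C. as 9-point ½-log dilutions in duplicate; 10 μM reference compound defined full inhibition.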

CDK4/Cyclin D1 = molecular target: T1, CDK4/Cyclin D1 (Homo sapiens, UniProt P11802); experiment: CDK4/CyclinD1 Enzymatic Activity Assay (TR-FRET); type: biochemical; details: ATP 2 mM final, read-out: CDK4_D1 IC50
T1 construct: purchased ProQinase; host or cells: insect cell
Method: CDK4/CyclinD1 Enzymatic Activity Assay
The inhibitory activity of compounds was evaluated in vitro using TR-FRET assay with white 384-well low volume microplate (Greiner Bio-One). CDK4/Cyclin D1 catalyzed phosphorylation of peptide in the presence and absence of compounds was measured and used in IC50 determination. Recombinant protein complex CDK4/Cyclin D1, expressed from insect cell, was purchased from ProQinase. Testing compounds were dissolved in DMSO at 1 mM and tested in 9-dose IC50 mode. The reaction mixture was prepared by mixing CDK4/CyclinD1 (1 nM final), ULight-4E-BP1 (100 nM final, Perkinelmer, TRF0128-D), and ATP (2 mM final) in assay buffer (20 mM of HEPES pH 7.4, 1 mM of EGTA, 0.05% BSA, 0.005% Tween 20, and 1 mM TCEP). The compound of interest in DMSO was added to each well in 3-fold serial dilution by the dispenser (TECAN D300E) to make a 9.9 μL of reaction mixture. After 20 minutes preincubation at room temperature, 0.1 μL MgCl2 (10 mM final) was added to initiate the reaction. Following a 45-minute incubation at 37° C., the reaction was stopped by addition of 2 μL of quenching buffer consisting of Lance detection buffer (Perkinelmer CR97-100C), LANCE Ultra Europium-anti-P-4E-BP1 (Perkinelmer, TRF0216-D), EDTA, and incubated at room temperature for additional 60 minutes in dark. The reaction signal was measured by Envision multimode plate reader (PerkinElmer, 2102-0010). IC50 values were determined by fitting the data to the standard 4 parameters with Hill Slope using GraphPad Prism software.

CDK2/Cyclin E2 = molecular target: T2, CDK2/Cyclin E2 (Homo sapiens, UniProt P24941); experiment: CDK2/CyclinE2 Enzymatic Activity Assay (TR-FRET); type: biochemical; details: ATP 1 mM final, read-out: CDK2_E1 IC50
T2 construct: Recombinant protein complex CDK2/Cyclin E2, expressed from insect cell, was purchased from ProQinase
Procedure, shortened: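 Recombinant insect-cell CDK2/Cyclin E2 (1 nM) phosphorylated ULight-4E-BP1 (50 nM) with 1 mM ATP in HEPES pH 7.4 buffer, after 20 min compound preincubation; MgCl2 (10 mM) started the 45 min reaction at 37° C. Europium anti-phospho-4E-BP1 TR-FRET read; 9-dose IC50 by 4-parameter fit.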

T1 sequence (P11802 whole entry): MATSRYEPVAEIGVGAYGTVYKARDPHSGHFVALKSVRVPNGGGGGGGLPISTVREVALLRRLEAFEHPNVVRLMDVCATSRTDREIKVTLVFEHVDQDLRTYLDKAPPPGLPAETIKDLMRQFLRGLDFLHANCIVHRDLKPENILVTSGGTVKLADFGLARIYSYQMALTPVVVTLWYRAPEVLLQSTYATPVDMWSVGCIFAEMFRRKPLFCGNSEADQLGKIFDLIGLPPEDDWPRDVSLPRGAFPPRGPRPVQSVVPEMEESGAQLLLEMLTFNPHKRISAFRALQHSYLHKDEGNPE
T1 sequence (P24385 whole entry partner): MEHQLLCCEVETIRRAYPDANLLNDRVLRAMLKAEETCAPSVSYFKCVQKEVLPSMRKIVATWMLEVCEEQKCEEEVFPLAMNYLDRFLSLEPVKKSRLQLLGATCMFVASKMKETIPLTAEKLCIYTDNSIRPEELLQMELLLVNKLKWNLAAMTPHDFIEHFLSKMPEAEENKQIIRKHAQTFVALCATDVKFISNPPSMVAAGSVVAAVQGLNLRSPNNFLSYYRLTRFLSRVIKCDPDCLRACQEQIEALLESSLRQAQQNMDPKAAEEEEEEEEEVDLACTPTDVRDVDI

Cc1sc(-c2nc(N[C@@H]3CCN(S(C)(=O)=O)C[C@H]3F)ncc2C(F)(F)F)cc1C(N)=O [Example 8, 5-(2-(((3R,4R)-3-fluoro-1-(methylsulfonyl)piperidin-4-yl)amino)-5-(trifluoromethyl)pyrimidin-4-yl)-2-methylthiophene-3-carboxamide]
IC50 (OVCAR3 p-RB): ≤ 100 nM | IC50 (CDK4/Cyclin D1): ≤ 100 nM | IC50 (CDK2/Cyclin E2): ≤ 100 nM

Cc1sc(-c2nc(N[C@H]3CCN(S(C)(=O)=O)C[C@H]3F)ncc2C(F)(F)F)cc1C(N)=O [Example 9, 5-(2-(((3R,4S)-3-fluoro-1-(methylsulfonyl)piperidin-4-yl)amino)-5-(trifluoromethyl)pyrimidin-4-yl)-2-methylthiophene-3-carboxamide]
IC50 (OVCAR3 p-RB): ≤ 100 nM | IC50 (CDK4/Cyclin D1): ≤ 100 nM | IC50 (CDK2/Cyclin E2): ≤ 100 nM

C[C@@H]1CN(S(C)(=O)=O)CC[C@@H]1Nc1ncc(C(F)(F)F)c(-c2cc(C(N)=O)cs2)n1 [Example 10, 5-(2-(((3R,4S)-3-methyl-1-(methylsulfonyl)piperidin-4-yl)amino)-5-(trifluoromethyl)pyrimidin-4-yl)thiophene-3-carboxamide]
IC50 (OVCAR3 p-RB): 100 to 500 nM | IC50 (CDK4/Cyclin D1): 100 to 500 nM | IC50 (CDK2/Cyclin E2): ≤ 100 nM

Cn1cc(S(=O)(=O)N2CC[C@H](Nc3ncc(C(F)(F)F)c(-c4cc(C(N)=O)cs4)n3)[C@H](F)C2)cn1 [Example 11, 5-(2-(((3R,4S)-3-fluoro-1-((1-methyl-1H-pyrazol-4-yl)sulfonyl)piperidin-4-yl)amino)-5-(trifluoromethyl)pyrimidin-4-yl)thiophene-3-carboxamide]
IC50 (OVCAR3 p-RB): ≤ 100 nM | IC50 (CDK4/Cyclin D1): ≤ 100 nM | IC50 (CDK2/Cyclin E2): ≤ 100 nM

Cn1cnc(S(=O)(=O)N2CC[C@H](Nc3ncc(C(F)(F)F)c(-c4cc(C(N)=O)cs4)n3)[C@H](F)C2)c1 [Example 12, 5-(2-(((3R,4S)-3-fluoro-1-((1-methyl-1H-imidazol-4-yl)sulfonyl)piperidin-4-yl)amino)-5-(trifluoromethyl)pyrimidin-4-yl)thiophene-3-carboxamide]
IC50 (OVCAR3 p-RB): ≤ 100 nM | IC50 (CDK4/Cyclin D1): ≤ 100 nM | IC50 (CDK2/Cyclin E2): ≤ 100 nM

Cn1cc(S(=O)(=O)N2CC[C@@H](Nc3ncc(C(F)(F)F)c(-c4cc(C(N)=O)cs4)n3)[C@H](F)C2)cn1 [Example 13, 5-(2-(((3R,4R)-3-fluoro-1-((1-methyl-1H-pyrazol-4-yl)sulfonyl)piperidin-4-yl)amino)-5-(trifluoromethyl)pyrimidin-4-yl)thiophene-3-carboxamide]
IC50 (OVCAR3 p-RB): ≤ 100 nM | IC50 (CDK4/Cyclin D1): ≤ 100 nM | IC50 (CDK2/Cyclin E2): ≤ 100 nM

Cn1cnc(S(=O)(=O)N2CC[C@@H](Nc3ncc(C(F)(F)F)c(-c4cc(C(N)=O)cs4)n3)[C@H](F)C2)c1 [Example 14, 5-(2-(((3R,4R)-3-fluoro-1-((1-methyl-1H-imidazol-4-yl)sulfonyl)piperidin-4-yl)amino)-5-(trifluoromethyl)pyrimidin-4-yl)thiophene-3-carboxamide]
IC50 (OVCAR3 p-RB): 100 to 500 nM | IC50 (CDK4/Cyclin D1): ≤ 100 nM | IC50 (CDK2/Cyclin E2): ≤ 100 nM

Cc1sc(-c2nc(N[C@H]3CCN(S(=O)(=O)c4cnn(C)c4)C[C@H]3F)ncc2C(F)(F)F)cc1C(N)=O [Example 15, 5-(2-(((3R,4S)-3-fluoro-1-((1-methyl-1H-pyrazol-4-yl)sulfonyl)piperidin-4-yl)amino)-5-(trifluoromethyl)pyrimidin-4-yl)-2-methylthiophene-3-carboxamide]
IC50 (OVCAR3 p-RB): ≤ 100 nM | IC50 (CDK4/Cyclin D1): ≤ 100 nM | IC50 (CDK2/Cyclin E2): ≤ 100 nM

Cc1sc(-c2nc(N[C@H]3CCN(S(=O)(=O)c4cn(C)cn4)C[C@H]3F)ncc2C(F)(F)F)cc1C(N)=O [Example 16, 5-(2-(((3R,4S)-3-fluoro-1-((1-methyl-1H-imidazol-4-yl)sulfonyl)piperidin-4-yl)amino)-5-(trifluoromethyl)pyrimidin-4-yl)-2-methylthiophene-3-carboxamide]
IC50 (OVCAR3 p-RB): ≤ 100 nM | IC50 (CDK4/Cyclin D1): ≤ 100 nM | IC50 (CDK2/Cyclin E2): ≤ 100 nM
